Each structure is given as a SMILES string.

Turning to `CS(=O)(=O)c1ccc(-c2nn3c(c2-c2ccc(F)cc2)OCCC3)cc1` [Example 1, 3-(4-Fluorophenyl)-2-(4-(methylsulphonyl)phenyl)-6,7-dihydro-5H-pyrazolo[5,1-b][1,3]oxazine], the melting point is 198 to 200 °C. Under `CS(=O)(=O)c1ccc(-c2nn3c(c2-c2ccc(F)cc2)OCCCC3)cc1` [Example 2, 3-(4-Fluorophenyl)-2-(4-(methylsulphonyl)phenyl)-5,6,7,8-tetrahydropyrazolo[5,1-b][1,3]oxazepine] stands 167 to 168 °C; under `CC(=O)C(C)Oc1nn(C(C)C(C)=O)c(-c2ccc(S(C)(=O)=O)cc2)c1-c1ccc(F)cc1` (stereo not drawn) [Example 17, 3-[4-(4-Fluorophenyl)-5-(4-methylsulfonylphenyl)-3-(1-methyl-2-oxopropoxy)-1H-pyrazol-1-yl]butan-2-one], 127 to 129 °C; under `CC(C)n1nc(OCC(=O)c2ccc(F)cc2)c(-c2ccc(F)cc2)c1-c1ccc(S(C)(=O)=O)cc1` [Example 19, 2-{[4-(4-Fluorophenyl)-5-(4-(methylsulphonyl)phenyl)-1-isopropyl-1H-pyrazol-3-yl]oxy}-1-(4-fluorophenyl)ethan-1-one], 184 to 185 °C. Under `CC(C)(C)C(=O)COc1nn(CC(=O)C(C)(C)C)c(-c2ccc(S(C)(=O)=O)cc2)c1-c1ccc(F)cc1` [Example 25, 1-[3-(3,3-Dimethyl-2-oxobutoxy)-4-(4-fluorophenyl)-5-(4-(methylsulphonyl)phenyl)-1H-pyrazol-1-yl]-3,3-dimethylbutan-2-one] stands 180 to 182 °C; under `CC(C)(C)C(=O)COc1nn(CC#N)c(-c2ccc(S(C)(=O)=O)cc2)c1-c1ccc(F)cc1` [Example 28, 2-[3-(3,3-Dimethyl-2-oxobutoxy)-4-(4-fluorophenyl)-5-(4-(methylsulphonyl)phenyl)-1H-pyrazol-1-yl]acetonitrile], 156 to 159 °C; under `CS(=O)(=O)c1ccc(-c2nn3c(-c4ccc(F)cc4)coc3c2-c2ccc(F)cc2)cc1` [Example 36B, 3,7-Bis(4-fluorophenyl)-6-(4-(methylsulphonyl)phenyl)pyrazolo[5,1-b][1,3]oxazole], 200 to 202 °C. As for `CS(=O)(=O)c1ccc(-c2nn3c(-c4ccccc4)coc3c2-c2ccc(F)cc2)cc1` [Example 37, 7-(4-Fluorophenyl)-6-(4-(methylsulphonyl)phenyl)-3-phenylpyrazolo[5,1-b][1,3]oxazole], the figure is 151 to 154 °C.

`CS(=O)(=O)c1ccc(-c2nn3c(-c4ccccc4)c(-c4ccccc4)oc3c2-c2ccc(F)cc2)cc1` [Example 38, 7-(4-Fluorophenyl)-6-(4-(methylsulphonyl)phenyl)-2,3-diphenylpyrazolo[5,1-b][1,3]oxazole] had a melting point of 228 to 229 °C. As for `CS(=O)(=O)c1ccc(-c2nn3c(C4C5CC6CC(C5)CC4C6)coc3c2-c2ccc(F)cc2)cc1` (stereo not drawn) [Example 39, 3-(2-Adamantyl)-7-(4-fluorophenyl)-6-(4-(methylsulphonyl)phenyl)pyrazolo[5,1-b][1,3]oxazole], the figure is 128 to 131 °C; as for `CC(C)(C)c1coc2c(-c3ccc(F)cc3)c(-c3ccc(S(C)(=O)=O)cc3)nn12` [Example 40, 3-(Tert-butyl)-7-(4-fluorophenyl)-6-(4-(methylsulphonyl)phenyl)pyrazolo[5,1-b][1,3]oxazole], 181 to 182 °C.

For the compound `Cc1oc2c(-c3ccc(F)cc3)c(-c3ccc(S(C)(=O)=O)cc3)nn2c1-c1ccccc1` [Example 41, 7-(4-Fluorophenyl)-2-methyl-6-(4-(methylsulphonyl)phenyl)-3-phenylpyrazolo[5,1-b][1,3]oxazole], the melting point lay in the range of 234 to 236 °C. Under `CS(=O)(=O)c1ccc(-c2nn3c4c(oc3c2-c2ccc(F)cc2)CCCC4)cc1` [Example 42, 3-(4-Fluorophenyl)-2-(4-(methylsulphonyl)phenyl)-5,6,7,8-tetrahydropyrazolo[5,1-b][1,3]benzoxazole] stands 183 to 184 °C; under `Cc1c(-c2ccc(F)cc2)oc2c(-c3ccc(F)cc3)c(-c3ccc(S(C)(=O)=O)cc3)nn12` [Example 43, 2,7-Bis(4-fluorophenyl)-3-methyl-6-(4-(methylsulphonyl)phenyl)pyrazolo[5,1-b][1,3]oxazole], 257 to 259 °C; under `Cc1oc2c(-c3ccc(F)cc3)c(-c3ccc(S(C)(=O)=O)cc3)nn2c1-c1cccs1` [Example 44, 7-(4-Fluorophenyl)-3-(2-thienyl)-2-methyl-6-(4-(methylsulphonyl)phenyl)pyrazolo[5,1-b][1,3]oxazole], 240 to 241 °C. Take `Cc1oc2c(-c3ccc(F)cc3)c(-c3ccc(S(C)(=O)=O)cc3)nn2c1-c1ccc(Cl)s1` [Example 45, 3-(5-Chloro-2-thienyl)-7-(4-fluorophenyl)-2-methyl-6-(4-(methylsulphonyl)phenyl)pyrazolo[5,1-b][1,3]oxazole]: the melting point lay in the range of 222 to 223 °C. Under `Cc1c(-c2cccc(C(F)(F)F)c2)oc2c(-c3ccc(F)cc3)c(-c3ccc(S(C)(=O)=O)cc3)nn12` [Example 46, 6-(4-(Methylsulphonyl)phenyl)-7-(4-fluorophenyl)-3-methyl-2-[3-(trifluoromethyl)phenyl]pyrazolo[5,1-b][1,3]oxazole] stands 194 to 195 °C; under `Cc1cc(-c2coc3c(-c4ccc(F)cc4)c(-c4ccc(S(C)(=O)=O)cc4)nn23)ccc1Cl` [Example 47, 3-(4-Chloro-3-methylphenyl)-7-(4-fluorophenyl)-6-(4-(methylsulphonyl)phenyl)pyrazolo[5,1-b][1,3]oxazole], 202 to 205 °C. Under `Cc1oc2c(-c3ccc(F)cc3)c(-c3ccc(S(C)(=O)=O)cc3)nn2c1C` [Example 48, 7-(4-Fluorophenyl)-6-(4-methylsulfonylphenyl)-2,3-dimethylpyrazolo[5,1-b][1,3]oxazole] stands 158 to 160 °C; under `CS(=O)(=O)c1ccc(-c2nn3c(C(F)(F)F)coc3c2-c2ccc(F)cc2)cc1` [Example 50, 7-(4-Fluorophenyl)-6-(4-(methylsulphonyl)phenyl)-3-(trifluoromethyl)pyrazolo[5,1-b][1,3]oxazole], 186 to 189 °C; under `CCOC(=O)c1oc2c(-c3ccc(F)cc3)c(-c3ccc(S(C)(=O)=O)cc3)nn2c1C` [Example 51, Ethyl 7-(4-Fluorophenyl)-6-(4-methylsulfonylphenyl)-3-methylpyrazolo[5,1-b][1,3]oxazole-2-carboxylate], 203 to 204 °C. As for `CS(=O)(=O)c1ccc(-c2nn3c4c(oc3c2-c2ccc(F)cc2)COCC4)cc1` [Example 52, 3-(4-Fluorophenyl)-2-(4-methylsulfonylphenyl)-7,8-dihydro-5H-pyrazolo[5,1-b]pyrano[4,3-d][1,3]oxazole], the figure is 200 to 201 °C; as for `CS(=O)(=O)c1ccc(-c2nn3c4c(oc3c2-c2ccc(F)cc2)CSCC4)cc1` [Example 53, 3-(4-Fluorophenyl)-2-(4-methylsulfonylphenyl)-7,8-dihydro-5H-pyrazolo[5,1-b]thiopyrano[4,3-d][1,3]oxazole], 178 to 180 °C. Turning to `Cc1c(C#N)oc2c(-c3ccc(F)cc3)c(-c3ccc(S(C)(=O)=O)cc3)nn12` [Example 54, 2-Cyano-7-(4-fluorophenyl)-3-methyl-6-(4-(methylsulphonyl)phenyl)pyrazolo[5,1-b][1,3]oxazole], the melting point was in the range of 236 to 238 °C. As for `NS(=O)(=O)c1ccc(-c2nn3c(-c4ccc(F)cc4)coc3c2-c2ccc(F)cc2)cc1` [Example 57, 4-[3,7-Bis(4-fluorophenyl)pyrazolo[5,1-b][1,3]oxazol-6-yl]benzenesulphonamide], the figure is 235 to 237 °C. Under `CC=CC(=O)c1oc2c(-c3ccc(F)cc3)c(-c3ccc(S(C)(=O)=O)cc3)nn2c1C` [Example 58, 1-[7-(4-Fluorophenyl)-3-methyl-6-(4-(methylsulphonyl)phenyl)pyrazolo[5,1-b][1,3]oxazol-2-yl]but-2-en-1-one] stands 197 to 199 °C; under `Cc1c(C#N)oc2c(-c3ccc(F)cc3)c(-c3ccc(S(N)(=O)=O)cc3)nn12` [Example 59, 6-(4-(Aminosulphonyl)phenyl)-2-cyano-7-(4-Fluorophenyl)-3-methyl-pyrazolo[5,1-b][1,3]oxazole], 231 to 232 °C.

In turn, `CS(=O)(=O)c1ccc(-c2nn3ccoc3c2-c2ccc(F)cc2)cc1` [Example 60, 7-(4-Fluorophenyl)-6-(4-(methylsulphonyl)phenyl)pyrazolo[5,1-b][1,3]oxazole] returned a melting point of 67 to 70 °C.

As for `CCc1coc2c(-c3ccc(F)cc3)c(-c3ccc(S(C)(=O)=O)cc3)nn12` [Example 61, 3-Ethyl-7-(4-fluorophenyl)-6-(4-(methylsulphonyl)phenyl)pyrazolo[5,1-b][1,3]oxazole], the melting point was in the range of 177 to 179 °C. Under `CCc1coc2c(-c3ccc(F)cc3)c(-c3ccc(S(N)(=O)=O)cc3)nn12` [Example 62, 6-(4-(aminosulphonyl)phenyl)-3-Ethyl-7-(4-fluorophenyl)pyrazolo[5,1-b][1,3]oxazole] stands 234 to 236 °C. As for `CS(=O)(=O)c1ccc(-c2c(-c3ccc(F)cc3)c(OCc3c(F)cccc3Cl)nn2Cc2c(F)cccc2Cl)cc1` [Example 64, 1-(2-Chloro-6-fluorobenzyl)-3-[(2-chloro-6-fluorobenzyl)oxy]-4-(4-fluorophenyl)-5-(4-(methylsulphonyl)phenyl)-1H-pyrazole], the figure is 195 to 196 °C; as for `CS(=O)(=O)c1ccc(-c2c(-c3ccc(F)cc3)c(=O)n3n2Cc2c(Cl)cccc2-3)cc1` [Example 65, 8-Chloro-2-(4-fluorophenyl)-1-(4-(methylsulphonyl)phenyl)-3H,9H-pyrazolo[1,2-a]indazol-3-one], 237 to 240 °C.

`CS(=O)(=O)c1ccc(-c2c(-c3ccc(F)cc3)nn3c(-c4ccc(F)cc4)coc23)cc1` [Example 73, 3,6-Bis(4-fluorophenyl)-7-(4-methylsulfonylphenyl)pyrazolo[5,1-b][1,3]oxazole]: the melting point was in the range of 289 to 291 °C.

These data come from patent publication US6472416B1, “Sulfonylphenylpyrazole compounds useful as COX-2 inhibitors” (Abbott Laboratories, priority 1999, dated 2002).
